Measured values taken from patent US10703751B2, “Amino-imidazopyridine derivatives as Janus kinase inhibitors and pharmaceutical use thereof” (LEO Pharma A/S, priority 2017, dated 2020).

Assays:
[1] = system: STAT5 irfl-bla TF1 cells; experiment: STAT5 assay (EPO stimulated reporter cells); assay type: cell-based; details: Homo sapiens, TF-1; erythropoietin (EPO) 10 ng/mL
Procedure: Twenty-five μL of a STAT5 irfl-bla TF1 (Invitrogen # K1219) cell suspension was seeded with a density of about 10,000 cells/well in 384-well Black View-plates (PerkinElmer #6007460) with clear bottom in assay medium (Opti-MEM (Invitrogen #11058-021)+0.5% heat inactivated fetal bovine Serum (Invitrogen #10082-147)+1% non-essential amino acids (Invitrogen #11140-050)+1% sodium pyruvate (Invitrogen #11360-070)+1% penicillin/streptomycin (Invitrogen #15140-122)). The cell plates were incubated overnight in a humidified 37° C. air/CO2 (95%/5%) incubator. The following day, 125 nL of solutions of test compounds and reference compounds were transferred to cell plates using the Labcyte Echo 550 liquid handler. The plates were then incubated for 1 h in a humidified 37° C. air/CO2 (95%/5%) incubator. Hereafter recombinant human erythropoietin (EPO) (Invitrogen # PHC9634) was added to the plates also using the Labcyte Echo 550 to a final concentration of 10 ng/mL. The cells were then incubated for 4½-5 h in a humidified 37° C. air/CO2 (95%/5%) incubator. 8 μL of LiveBLAzer substrate mixture (Invitrogen # K1095) were then added to the assay plates, which were then incubated overnight at RT. Fluorescence was then measured: Excitation: 405 nm; Emission: 460 nm (green channel), Emission: 535 nm (blue channel). Background was subtracted in both emission channels and the ratio 460/535 nm was calculated for each well.

[2] = system: CYP2B6 gene expression; experiment: CYP induction, CYP2B6 mRNA expression; assay type: in vitro ADME; details: Example 3: up to at least a concentration of 10 μM; Example 644: at 10 μM
Procedure: (§1) Reversible CYP inhibition, time dependent CYP inhibition (TDI) and CYP induction was tested at Cyprotex PLC according to authority guidance.
(§2) Induction of CYP1A2, CYP2B6 and CYP3A4 gene expression can serve as sensitive representative endpoints for activation of aryl hydrocarbon receptor (AhR), […], respectively. Induction of these nuclear receptors was assessed by measuring the increase in mRNA encoding for […], respectively, at relevant concentrations.
(§3) A >2-fold shift indicate CYP Induction.

[3] = system: CYP1A2; experiment: CYP induction, CYP1A2 mRNA expression; assay type: in vitro ADME; details: human, mean fold shift compared to vehicle, read-out: Fold shift in mRNA expr. (CYP 1A2); for CYP1A2 mRNA fold change vs vehicle at 0.1 μM: >2-fold indicates induction
Procedure: as §1, §2, §3

[4] = system: CYP2B6; experiment: CYP induction, CYP2B6 mRNA expression; assay type: in vitro ADME; details: human, mean fold shift compared to vehicle, read-out: Fold shift in mRNA expr. (CYP 2B6)
Procedure: as §1, §2, §3

[5] = system: CYP3A4; experiment: CYP induction, CYP3A4 mRNA expression; assay type: in vitro ADME; details: human, mean fold shift compared to vehicle, read-out: Fold shift in mRNA expr. (CYP 3A4)
Procedure: as §1, §2, §3

[6] = biological target: CYP2B6 (Homo sapiens (Human), UniProt P20813); experiment: Reversible CYP inhibition, 2B6; assay type: in vitro ADME; details: up to 50 μM for Example 3
Procedure: as §1

[7] = biological target: CYP2C8 (Homo sapiens (Human), UniProt P10632); experiment: Reversible CYP inhibition, 2C8; assay type: in vitro ADME; details: up to 50 μM for Example 3
Procedure: as §1

[8] = system: CYP; experiment: Reversible CYP inhibition, overall statement; assay type: in vitro ADME; details: substrate concentrations up to 50 μM
Procedure: as §1

[9] = system: CYP; experiment: Time dependent CYP inhibition (TDI); assay type: in vitro ADME
Procedure: as §1

[10] = system: CYP1A2 gene expression; experiment: CYP induction, CYP1A2 mRNA expression; assay type: in vitro ADME; details: Example 3: up to at least a concentration of 10 μM
Procedure: as §1, §2, §3

Chain of CYP2C8 (P10632 whole entry): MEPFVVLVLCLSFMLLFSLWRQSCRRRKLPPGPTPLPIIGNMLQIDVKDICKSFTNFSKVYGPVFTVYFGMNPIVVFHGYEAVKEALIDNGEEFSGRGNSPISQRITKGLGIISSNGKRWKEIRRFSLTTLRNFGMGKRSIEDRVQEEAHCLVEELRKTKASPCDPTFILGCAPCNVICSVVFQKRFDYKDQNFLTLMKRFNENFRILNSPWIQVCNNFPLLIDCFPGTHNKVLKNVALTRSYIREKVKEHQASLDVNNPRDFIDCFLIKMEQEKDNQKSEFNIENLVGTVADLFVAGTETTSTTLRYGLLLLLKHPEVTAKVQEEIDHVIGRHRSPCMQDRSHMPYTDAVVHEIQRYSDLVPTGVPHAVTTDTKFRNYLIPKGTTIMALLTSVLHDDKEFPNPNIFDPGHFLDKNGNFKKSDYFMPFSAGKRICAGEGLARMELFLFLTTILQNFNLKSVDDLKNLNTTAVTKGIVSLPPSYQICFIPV
Chain of CYP2B6 (Homo sapiens (Human), UniProt P20813) (P20813 whole entry): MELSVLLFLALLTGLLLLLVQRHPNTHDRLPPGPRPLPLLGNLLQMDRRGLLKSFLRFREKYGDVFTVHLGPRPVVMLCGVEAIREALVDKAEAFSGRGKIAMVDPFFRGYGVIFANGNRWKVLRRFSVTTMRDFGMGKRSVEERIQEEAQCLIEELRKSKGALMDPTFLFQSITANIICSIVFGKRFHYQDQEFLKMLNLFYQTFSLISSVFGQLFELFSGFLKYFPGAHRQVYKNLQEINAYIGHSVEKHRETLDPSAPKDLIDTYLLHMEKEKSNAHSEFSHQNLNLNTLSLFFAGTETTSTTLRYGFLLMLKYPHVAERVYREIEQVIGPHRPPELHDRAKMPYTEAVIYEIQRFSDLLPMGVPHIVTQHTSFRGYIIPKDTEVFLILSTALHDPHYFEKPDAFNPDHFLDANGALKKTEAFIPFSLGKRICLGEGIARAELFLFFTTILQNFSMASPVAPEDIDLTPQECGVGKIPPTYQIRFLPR

Row | Structure (SMILES) | EC50 [1] [µM] | CYP2B6 induction (in words) [2] | CYP1A2 mRNA fold change vs vehicle at 0.1 μM [3] | CYP1A2 mRNA fold change vs vehicle at 1 μM [3] | CYP1A2 mRNA fold change vs vehicle at 10 μM [3] | fold change in CYP2B6 mRNA expression vs vehicle at 0.1 μM [4] | fold change in CYP2B6 mRNA expression vs vehicle at 1 μM [4] | fold change in CYP2B6 mRNA expression vs vehicle at 10 μM [4] | CYP3A4 mRNA fold induction vs vehicle at 5 μM [5] | CYP3A4 mRNA fold induction vs vehicle at 20 μM [5] | CYP3A4 mRNA fold induction vs vehicle at 50 μM [5] | IC50 [6] [µM] | IC50 [7] [µM] | CYP inhibition (in words) [8] | time dependent CYP inhibition (in words) [9] | CYP1A2 induction (in words) [10]
1 | C[C@@H](O)c1nc2cnc3[nH]ccc3c2n1[C@H]1CC[C@H](CC#N)CC1 [Example 644 of WO2011086053] | 0.123 | CYP2B6 induction at a concentration of 10 μM |  |  |  |  |  |  |  |  |  |  |  |  |  | 
2 | C[C@@H](O)c1nc2cnc3[nH]ccc3c2n1[C@H]1CC[C@H](C#N)CC1 [Example 641 of WO2011086053] | 5.74 |  | 0.9 | 0.8 | 0.9 | 1 | 1.3 | 1.4 | 1.8 | 2.5 | 4 |  |  |  |  | 
3 | CNc1cc2c(cn1)nc([C@@H](C)O)n2[C@H]1CC[C@H](CC#N)CC1 [Example 3, trans-2-[4-[2-[(1R)-1-Hydroxyethyl]-6-(methylamino)imidazo[4,5-c]pyridin-1-yl]cyclohexyl]acetonitrile] | 6.42 | does not cause | 0.8 | 0.7 | 0.8 | 1.1 | 1.5 | 1.7 | 1.2 | 1.5 | 2 | > 50 | > 50 | no CYP inhibition | No time dependent CYP inhibition was indicated | does not cause
